Results from US4861788A, “Antibacterial 1-normon-2-yl-heterocyclic compounds” (Beecham Group plc, priority 1983, dated 1989).
≈ marks a conversion by molar mass, not a printed value. Like-named read-outs stand apart in the source and are kept apart here.

Legend:
M. hyopneumoniae NB12 = assay: MIC against Mycoplasma in vitro (Friis broth with agarose); assay type: cell-based; details: Mesomycoplasma hyopneumoniae
M. hyopneumoniae JF 435 = assay: as above; assay type: cell-based; details: Mesomycoplasma hyopneumoniae, JF435, 144 h
M. hyopneumoniae HK (2) = assay: as above; assay type: cell-based; details: Mesomycoplasma hyopneumoniae, 144 h
[1] = system: M. hyopneumoniae J2206/183^b; assay: as above; assay type: cell-based; details: Mesomycoplasma hyopneumoniae, 144 h; M. hyopneumoniae J2206/183^b; 6 days at 37° C; read-out: MIC
M. hyopneumoniae LABER = assay: as above; assay type: cell-based; details: Mesomycoplasma hyopneumoniae, 144 h; M. hyopneumoniae LABER; 6 days at 37° C; read-out: MIC
Bacillus subtilis 6633 = assay: MIC against human bacteria in vitro (nutrient agar, chocolated horse blood); assay type: cell-based; details: human; Bacillus subtilis 6633; 18 hours at 37° C; read-out: MIC
Experimental: (§1) The activity of the normonyl derivaties of the Examples against various bacteria which are important in diseases of humans, was assayed in vitro using serial dilutions in nurient agar with 5% chocolated horse blood.

[2] = system: Corynebacterium xerosis 9755; assay: as above; assay type: cell-based
Experimental: as §1

E. coli ESS = assay: as above; assay type: cell-based; details: Escherichia coli; human; E. coli ESS; 18 hours at 37° C; read-out: MIC
Experimental: as §1

E. coli NCTC 10418 = assay: as above; assay type: cell-based; details: Escherichia coli
Experimental: as §1

[3] = system: Haemophilus influenzae Wy21; assay: as above; assay type: cell-based
Experimental: as §1

K. aerogenes A = assay: as above; assay type: cell-based; details: Klebsiella aerogenes
Experimental: as §1

[4] = system: Neisseria catarrhalis 1502; assay: as above; assay type: cell-based
Experimental: as §1

P. mirabilis 889 = assay: as above; assay type: cell-based
Experimental: as §1

[5] = system: Pasteurella multocida 1633; assay: as above; assay type: cell-based; details: human; Pasteurella multocida 1633; 18 hours at 37° C; read-out: MIC
Experimental: as §1

[6] = system: Ps. aeruginosa NCTC 10662; assay: as above; assay type: cell-based; details: Pseudomonas aeruginosa
Experimental: as §1

Staph. aureus Oxford [7] = assay: as above; assay type: cell-based; details: Staphylococcus aureus; human; Staph. aureus Oxford; 18 hours at 37° C; read-out: MIC
Experimental: as §1

Staph. aureus Russell = assay: as above; assay type: cell-based; details: Staphylococcus aureus; human; Staph. aureus Russell; 18 hours at 37° C; read-out: MIC
Experimental: as §1

Staph. aureus W2827 = assay: as above; assay type: cell-based; details: Staphylococcus aureus; human; Staph. aureus W2827; 18 hours at 37° C; read-out: MIC
Experimental: as §1

Strep. agalactiae 2788-B = assay: as above; assay type: cell-based; details: Streptococcus agalactiae
Experimental: as §1

Strep. faecalis I = assay: as above; assay type: cell-based; details: Enterococcus faecalis
Experimental: as §1

Strep. pneumoniae CN33 = assay: as above; assay type: cell-based; details: Streptococcus pneumoniae
Experimental: as §1

[8] = system: Strep. pyogenes R80/421-A; assay: as above; assay type: cell-based; details: Streptococcus pyogenes
Experimental: as §1

Strep. spp. 64/848-C = assay: as above; assay type: cell-based; details: human; Strep. spp. 64/848-C; 18 hours at 37° C; read-out: MIC
Experimental: as §1

E. coli E1 = assay: MIC against veterinary bacteria in vitro (Diagnostic Sensitivity Test Agar); details: Escherichia coli, E1, 18 h
Experimental: (§2) The activity of the normonyl derivatives of the Examples against various veterinarily important bacteria, was assayed in vitro using two-fold serial dilutions in Diagnostic Sensitivity Test Agar inoculated with 10^4 organisms.

Staph. aureus Oxford [9] = assay: as above; details: Staphylococcus aureus, 18 h
Experimental: as §2

[10] = system: M. hyopneumoniae PW/C/210; assay: MIC against Mycoplasma in vitro (Friis broth with agarose); assay type: cell-based; details: Mesomycoplasma hyopneumoniae, 144 h; M. hyopneumoniae PW/C/210; 6 days at 37° C; read-out: MIC
[11] = system: Haemophilus influenzae Q1; assay: MIC against human bacteria in vitro (nutrient agar, chocolated horse blood); assay type: cell-based; details: human; Haemophilus influenzae Q1; 18 hours at 37° C; read-out: MIC
Experimental: as §1

Sarcina lutea 8340 = assay: as above; assay type: cell-based
Experimental: as §1

[12] = 144 h, M. hyopneumoniae NB12, 6 days at 37° C, read-out: MIC
[13] = M. hyopneumoniae JF 435, 6 days at 37° C, read-out: MIC
[14] = M. hyopneumoniae HK (2), 6 days at 37° C, read-out: MIC
[15] = human, Corynebacterium xerosis 9755, 18 hours at 37° C, read-out: MIC
[16] = NCTC10418, human, E. coli NCTC 10418, 18 hours at 37° C, read-out: MIC
[17] = human, Haemophilus influenzae Wy21, 18 hours at 37° C, read-out: MIC
[18] = human, K. aerogenes A, 18 hours at 37° C, read-out: MIC
[19] = human, Neisseria catarrhalis 1502, 18 hours at 37° C, read-out: MIC
[20] = Proteus mirabilis, human, P. mirabilis 889, 18 hours at 37° C, read-out: MIC
[21] = NCTC10662, human, Ps. aeruginosa NCTC 10662, 18 hours at 37° C, read-out: MIC
[22] = human, Strep. agalactiae 2788-B, 18 hours at 37° C, read-out: MIC
[23] = human, Strep. faecalis I, 18 hours at 37° C, read-out: MIC
[24] = human, Strep. pneumoniae CN33, 18 hours at 37° C, read-out: MIC
[25] = human, Strep. pyogenes R80/421-A, 18 hours at 37° C, read-out: MIC

| Structure (SMILES) | MIC (M. hyopneumoniae NB12; [12]) [µg/mL] | MIC (M. hyopneumoniae JF 435; [13]) [µg/mL] | MIC [1] [µg/mL] | MIC (M. hyopneumoniae LABER) [µg/mL] | MIC (Bacillus subtilis 6633) [µg/mL] | MIC [2, 15] [µg/mL] | MIC (E. coli ESS) [µg/mL] | MIC (E. coli NCTC 10418; [16]) [µg/mL] | MIC [3, 17] [µg/mL] | MIC (K. aerogenes A; [18]) [µg/mL] | MIC [4, 19] [µg/mL] | MIC (P. mirabilis 889; [20]) [µg/mL] | MIC [5] [µg/mL] | MIC [6, 21] [µg/mL] | MIC (Staph. aureus Oxford [7]) [µg/mL] | MIC (Staph. aureus Russell) [µg/mL] | MIC (Staph. aureus W2827) [µg/mL] | MIC (Strep. spp. 64/848-C) [µg/mL] | MIC (E. coli E1) [µg/mL] | MIC (Staph. aureus Oxford [9]) [µg/mL] | also measured |
| --- | --- | --- | --- | --- | --- | --- | --- | --- | --- | --- | --- | --- | --- | --- | --- | --- | --- | --- | --- | --- | --- |
| CC(=Cc1nnnn1CCCCCCCCC(=O)O)CC1OCC(CC2OC2C(C)C(C)O)C(O)C1O (stereo not shown) [Example 14, Sodium 1-(8-carboxylatooctyl)-5-(1-normon-2-yl)-1H-tetrazole A] | > 10 | > 10 | > 10 | > 10 | > 128 | > 128 | > 128 | > 128 | 128 | > 128 | > 128 | > 128 | 64 | > 128 | > 128 | > 128 | > 128 | > 128 | > 80 | > 80 | MIC (M. hyopneumoniae HK (2); [14]): > 10 µg/mL; MIC (Strep. agalactiae 2788-B; [22]): > 128 µg/mL; MIC (Strep. faecalis I; [23]): > 128 µg/mL; MIC (Strep. pneumoniae CN33; [24]): > 128 µg/mL; MIC [8, 25]: > 128 µg/mL |
| CC(=Cc1nnc(-c2ccccc2)o1)CC1OCC(CC2OC2C(C)C(C)O)C(O)C1O (stereo not shown) [Example 1, 2-(1-Normon-2-yl)-5-phenyl-1,3,4-oxadiazole A] | 2.5 (≈ 5.62 µM) | 5 (≈ 11.2 µM) | 5 (≈ 11.2 µM) | 2.5 (≈ 5.62 µM) | 5 (≈ 11.2 µM) | – | 10 (≈ 22.5 µM) | – | 2.5 (≈ 5.62 µM) | – | 2.5 (≈ 5.62 µM) | – | 2.5 (≈ 5.62 µM) | – | 10 (≈ 22.5 µM) | 25 (≈ 56.2 µM) | 25 (≈ 56.2 µM) | 25 (≈ 56.2 µM) | > 80 | 5 (≈ 11.2 µM) | MIC [10]: 2.5 µg/mL (≈ 5.62 µM); MIC ([2]; Corynebacterium xerosis, 9755, 18 h): > 100 µg/mL; MIC (E. coli NCTC 10418; NCTC10418, 18 h): > 100 µg/mL; MIC [11]: 2.5 µg/mL (≈ 5.62 µM); MIC (K. aerogenes A; 18 h): > 100 µg/mL; MIC (P. mirabilis 889; Proteus mirabilis, 889, 18 h): > 100 µg/mL; MIC ([6]; NCTC10662, 18 h): > 100 µg/mL; MIC (Sarcina lutea 8340; Micrococcus luteus, 8340, 18 h): > 100 µg/mL; MIC (Strep. agalactiae 2788-B; 2788B, 18 h): 100 µg/mL (≈ 225 µM); MIC (Strep. faecalis I; 18 h): > 100 µg/mL; MIC (Strep. pneumoniae CN33; CN33, 18 h): 100 µg/mL (≈ 225 µM); MIC ([8]; R80/421A, 18 h): 100 µg/mL (≈ 225 µM) |
| CC(=Cc1nnnn1Cc1ccc([N+](=O)[O-])cc1)CC1OCC(CC2OC2C(C)C(C)O)C(O)C1O (stereo not shown) [Example 12, 1-(p-Nitrobenzyl)-5-(1-normon-2-yl)tetrazole A] | 5 (≈ 9.93 µM) | 5 (≈ 9.93 µM) | 5 (≈ 9.93 µM) | – | 100 (≈ 199 µM) | ≥ 100 | 100 (≈ 199 µM) | > 100 | 2.5 (≈ 4.96 µM) | > 100 | 10 (≈ 19.9 µM) | > 100 | 5 (≈ 9.93 µM) | > 100 | 100 (≈ 199 µM) | ≥ 100 | 100 (≈ 199 µM) | 100 (≈ 199 µM) | > 80 | > 80 | MIC (M. hyopneumoniae HK (2); [14]): 5 µg/mL (≈ 9.93 µM); MIC [10]: 2.5 µg/mL (≈ 4.96 µM); MIC [11]: 1 µg/mL (≈ 1.99 µM); MIC (Sarcina lutea 8340; Micrococcus luteus, human, Sarcina lutea 8340, 18 hours at 37° C, read-out: MIC): ≥ 100 µg/mL; MIC (Strep. agalactiae 2788-B; [22]): 50 µg/mL (≈ 99.3 µM); MIC (Strep. faecalis I; [23]): > 100 µg/mL; MIC (Strep. pneumoniae CN33; [24]): 100 µg/mL (≈ 199 µM); MIC [8, 25]: 50 µg/mL (≈ 99.3 µM) |
| COC(=O)CCCCCCCCn1nnnc1C=C(C)CC1OCC(CC2OC2C(C)C(C)O)C(O)C1O (stereo not shown) [Example 13, 1-(8-Methoxycarbonyloctyl)-5-(1-normon-2-yl)-1H-tetrazole A] | > 10 | > 10 | > 10 | > 10 | > 64 | > 64 | > 64 | > 64 | 16 (≈ 29.7 µM) | > 64 | 64 (≈ 119 µM) | > 64 | 64 (≈ 119 µM) | > 64 | > 64 | > 64 | > 64 | > 64 | > 80 | 40 (≈ 74.3 µM) | MIC (M. hyopneumoniae HK (2); [14]): > 10 µg/mL; MIC [10]: > 10 µg/mL; MIC (Strep. agalactiae 2788-B; [22]): > 64 µg/mL; MIC (Strep. faecalis I; [23]): > 64 µg/mL; MIC (Strep. pneumoniae CN33; [24]): > 64 µg/mL; MIC [8, 25]: > 64 µg/mL |
| CC(=Cc1nnc(-c2cccc([N+](=O)[O-])c2)o1)CC1OCC(CC2OC2C(C)C(C)O)C(O)C1O (stereo not shown) [Example 2, 2-m-Nitrophenyl-5-(1-normon-2-yl)-1,3,4-oxadiazole A] | – | – | 0.025 (≈ 0.0511 µM) | 0.025 (≈ 0.0511 µM) | 4 (≈ 8.17 µM) | > 128 | 4 (≈ 8.17 µM) | > 128 | – | > 128 | – | > 128 | 2 (≈ 4.09 µM) | > 128 | 16 (≈ 32.7 µM) | 64 (≈ 131 µM) | 64 (≈ 131 µM) | 32 (≈ 65.4 µM) | > 80 | 20 (≈ 40.9 µM) | MIC (M. hyopneumoniae NB12; NB12, 144 h): 0.05 µg/mL (≈ 0.102 µM); MIC (M. hyopneumoniae JF 435): 0.05 µg/mL (≈ 0.102 µM); MIC (M. hyopneumoniae HK (2)): 0.05 µg/mL (≈ 0.102 µM); MIC ([3]; Haemophilus influenzae, WY21, 18 h): 0.5 µg/mL (≈ 1.02 µM); MIC ([4]; Neisseria, 1502, 18 h): 0.5 µg/mL (≈ 1.02 µM); MIC (Strep. agalactiae 2788-B; [22]): 32 µg/mL (≈ 65.4 µM); MIC (Strep. faecalis I; [23]): > 128 µg/mL; MIC (Strep. pneumoniae CN33; [24]): 32 µg/mL (≈ 65.4 µM); MIC [8, 25]: 4 µg/mL (≈ 8.17 µM) |
